Laboratory results: PubChem BioAssay (NCI)
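Five concentrations, 48 hours, 96-well plates. Definition used: TGI = concentration required for complete inhibition of growth.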

Experiments:
Assay in all cases: growth of human tumour cells (NCI), 48 h
HOP-18 NSCLC = tested on: HOP-18 NSCLC
SR leukemia = tested on: SR leukemia
OVCAR-5 ovarian = tested on: OVCAR-5 ovarian
HOP-62 NSCLC = tested on: HOP-62 NSCLC
NCI-H460 lung = tested on: NCI-H460 lung
SN12C renal = tested on: SN12C renal
OVCAR-3 ovarian = tested on: OVCAR-3 ovarian
MOLT-4 leukemia = tested on: MOLT-4 leukemia
SK-OV-3 ovarian = tested on: SK-OV-3 ovarian
SW-620 colon = tested on: SW-620 colon
IGROV1 ovarian = tested on: IGROV1 ovarian
A549 NSCLC = tested on: A549 NSCLC
SF-295 CNS = tested on: SF-295 CNS
UO-31 renal = tested on: UO-31 renal
SK-MEL-5 melanoma = tested on: SK-MEL-5 melanoma
HOP-92 NSCLC = tested on: HOP-92 NSCLC
UACC-257 melanoma = tested on: UACC-257 melanoma
HT29 colon = tested on: HT29 colon
NCI-H522 lung = tested on: NCI-H522 lung
CAKI-1 renal = tested on: CAKI-1 renal
DU-145 prostate = tested on: DU-145 prostate
NCI-H23 lung = tested on: NCI-H23 lung
786-0 renal = tested on: 786-0 renal
SNB-78 CNS = tested on: SNB-78 CNS
EKVX NSCLC = tested on: EKVX NSCLC
UACC-62 melanoma = tested on: UACC-62 melanoma
SK-MEL-2 melanoma = tested on: SK-MEL-2 melanoma
MALME-3M melanoma = tested on: MALME-3M melanoma
LOX IMVI melanoma = tested on: LOX IMVI melanoma
OVCAR-4 ovarian = tested on: OVCAR-4 ovarian
OVCAR-8 ovarian = tested on: OVCAR-8 ovarian
RPMI-8226 leukemia = tested on: RPMI-8226 leukemia
RXF 393 renal = tested on: RXF 393 renal
NCI-H226 lung = tested on: NCI-H226 lung
SNB-19 CNS = tested on: SNB-19 CNS
COLO 205 colon = tested on: COLO 205 colon
SK-MEL-28 melanoma = tested on: SK-MEL-28 melanoma
DLD-1 colon = tested on: DLD-1 colon
HCT-15 colon = tested on: HCT-15 colon
M14 melanoma = tested on: M14 melanoma
A498 renal = tested on: A498 renal
SF-268 CNS = tested on: SF-268 CNS
HCC-2998 colon = tested on: HCC-2998 colon
DMS 114 small cell lung = tested on: DMS 114 small cell lung
HCT-116 colon = tested on: HCT-116 colon
SNB-75 CNS = tested on: SNB-75 CNS
ACHN renal = tested on: ACHN renal
SF-539 CNS = tested on: SF-539 CNS
U251 CNS = tested on: U251 CNS
XF 498 CNS = tested on: XF 498 CNS
KM20L2 colon = tested on: KM20L2 colon
CCRF-CEM leukemia = tested on: CCRF-CEM leukemia
LXFL 529 NSCLC = tested on: LXFL 529 NSCLC
HL-60(TB) leukemia = tested on: HL-60(TB) leukemia
KM12 colon = tested on: KM12 colon
M19-MEL melanoma = tested on: M19-MEL melanoma
TK-10 renal = tested on: TK-10 renal
K-562 leukemia = tested on: K-562 leukemia
DMS 273 small cell lung = tested on: DMS 273 small cell lung

CCOP(=O)(OCC)/C(C#N)=C\c1ccc(OC(C)=O)cc1
TGI (HOP-18 NSCLC): > 100 µM
TGI (SR leukemia): > 100 µM
TGI (OVCAR-5 ovarian): > 100 µM
TGI (HOP-62 NSCLC): > 100 µM
TGI (NCI-H460 lung): > 100 µM
TGI (SN12C renal): > 100 µM
TGI (OVCAR-3 ovarian): > 100 µM
TGI (MOLT-4 leukemia): > 100 µM
TGI (SK-OV-3 ovarian): > 100 µM
TGI (SW-620 colon): > 100 µM
TGI (IGROV1 ovarian): > 100 µM
TGI (A549 NSCLC): > 100 µM
TGI (SF-295 CNS): > 100 µM
TGI (UO-31 renal): > 100 µM
TGI (SK-MEL-5 melanoma): > 100 µM
TGI (HOP-92 NSCLC): > 100 µM
TGI (UACC-257 melanoma): > 100 µM
TGI (HT29 colon): > 100 µM
TGI (NCI-H522 lung): > 100 µM
TGI (CAKI-1 renal): > 100 µM
TGI (DU-145 prostate): > 100 µM
TGI (NCI-H23 lung): > 100 µM
TGI (786-0 renal): > 100 µM
TGI (SNB-78 CNS): > 100 µM
TGI (EKVX NSCLC): > 100 µM
TGI (UACC-62 melanoma): > 100 µM
TGI (SK-MEL-2 melanoma): > 100 µM
TGI (MALME-3M melanoma): > 100 µM
TGI (LOX IMVI melanoma): > 100 µM
TGI (OVCAR-4 ovarian): > 100 µM
TGI (OVCAR-8 ovarian): > 100 µM
TGI (RPMI-8226 leukemia): > 100 µM
TGI (RXF 393 renal): > 100 µM
TGI (NCI-H226 lung): > 100 µM
TGI (SNB-19 CNS): > 100 µM
TGI (COLO 205 colon): > 100 µM
TGI (SK-MEL-28 melanoma): > 100 µM
TGI (DLD-1 colon): > 100 µM
TGI (HCT-15 colon): > 100 µM
TGI (M14 melanoma): > 100 µM
TGI (A498 renal): > 100 µM
TGI (SF-268 CNS): > 100 µM
TGI (HCC-2998 colon): > 100 µM
TGI (DMS 114 small cell lung): > 100 µM
TGI (HCT-116 colon): > 100 µM
TGI (SNB-75 CNS): > 100 µM
TGI (ACHN renal): > 100 µM
TGI (SF-539 CNS): > 100 µM
TGI (U251 CNS): > 100 µM
TGI (XF 498 CNS): > 100 µM
TGI (KM20L2 colon): > 100 µM
TGI (CCRF-CEM leukemia): > 100 µM
TGI (LXFL 529 NSCLC): > 100 µM
TGI (HL-60(TB) leukemia): > 100 µM
TGI (KM12 colon): > 100 µM
TGI (M19-MEL melanoma): > 100 µM
TGI (TK-10 renal): > 100 µM
TGI (K-562 leukemia): > 100 µM

CCOP1(=O)C=CC(Cl)=C(C)C1 (centres undefined)
TGI (HOP-18 NSCLC): 31.2 µM
TGI (OVCAR-5 ovarian): 50.2 µM
TGI (HOP-62 NSCLC): 70 µM
TGI (NCI-H460 lung): 74.3 µM
TGI (SN12C renal): 16.3 µM
TGI (OVCAR-3 ovarian): 35 µM
TGI (MOLT-4 leukemia): 19.9 µM
TGI (SK-OV-3 ovarian): > 100 µM
TGI (SW-620 colon): 30.4 µM
TGI (IGROV1 ovarian): 55.1 µM
TGI (A549 NSCLC): > 100 µM
TGI (SF-295 CNS): > 100 µM
TGI (UO-31 renal): > 71.5 µM
TGI (SK-MEL-5 melanoma): 36.5 µM
TGI (HOP-92 NSCLC): 34.3 µM
TGI (UACC-257 melanoma): 39.8 µM
TGI (HT29 colon): 28.5 µM
TGI (NCI-H522 lung): 17.3 µM
TGI (CAKI-1 renal): 23.7 µM
TGI (NCI-H23 lung): 18.1 µM
TGI (786-0 renal): 30.6 µM
TGI (SNB-78 CNS): 47.5 µM
TGI (EKVX NSCLC): > 56.8 µM
TGI (UACC-62 melanoma): 32.2 µM
TGI (SK-MEL-2 melanoma): 27.5 µM
TGI (MALME-3M melanoma): 29 µM
TGI (LOX IMVI melanoma): 39 µM
TGI (OVCAR-4 ovarian): 30.7 µM
TGI (OVCAR-8 ovarian): 71.6 µM
TGI (RPMI-8226 leukemia): > 59.4 µM
TGI (RXF 393 renal): 14.3 µM
TGI (NCI-H226 lung): > 100 µM
TGI (SNB-19 CNS): > 100 µM
TGI (COLO 205 colon): 44.4 µM
TGI (SK-MEL-28 melanoma): 30.3 µM
TGI (DLD-1 colon): 25.4 µM
TGI (HCT-15 colon): 30.1 µM
TGI (M14 melanoma): 29 µM
TGI (A498 renal): > 71.1 µM
TGI (SF-268 CNS): 56.9 µM
TGI (HCC-2998 colon): 29.6 µM
TGI (DMS 114 small cell lung): 39.4 µM
TGI (HCT-116 colon): 44.7 µM
TGI (SNB-75 CNS): 19.9 µM
TGI (ACHN renal): 24.8 µM
TGI (SF-539 CNS): 43.6 µM
TGI (U251 CNS): 65.3 µM
TGI (XF 498 CNS): 34.3 µM
TGI (KM20L2 colon): 31.8 µM
TGI (CCRF-CEM leukemia): 12 µM
TGI (LXFL 529 NSCLC): 25.9 µM
TGI (HL-60(TB) leukemia): 15.3 µM
TGI (KM12 colon): 33.5 µM
TGI (M19-MEL melanoma): > 57.3 µM
TGI (TK-10 renal): 34.2 µM
TGI (K-562 leukemia): 20.4 µM

COc1ccc(Nc2nc3c(N)cc(C(F)(F)F)cc3nc2-c2ccccc2)cc1OC
TGI (HOP-18 NSCLC): 43.8 µM
TGI (SR leukemia): > 100 µM
TGI (OVCAR-5 ovarian): > 100 µM
TGI (HOP-62 NSCLC): 57.8 µM
TGI (NCI-H460 lung): > 100 µM
TGI (SN12C renal): 47.1 µM
TGI (OVCAR-3 ovarian): 42.9 µM
TGI (MOLT-4 leukemia): > 100 µM
TGI (SK-OV-3 ovarian): 28.6 µM
TGI (SW-620 colon): > 100 µM
TGI (IGROV1 ovarian): 69.7 µM
TGI (A549 NSCLC): 66.1 µM
TGI (SF-295 CNS): 44.8 µM
TGI (UO-31 renal): 95.3 µM
TGI (SK-MEL-5 melanoma): 62.3 µM
TGI (HOP-92 NSCLC): 46.3 µM
TGI (UACC-257 melanoma): 63.9 µM
TGI (NCI-H522 lung): 43.9 µM
TGI (CAKI-1 renal): 42.5 µM
TGI (NCI-H23 lung): > 100 µM
TGI (786-0 renal): 28.9 µM
TGI (SNB-78 CNS): 75.7 µM
TGI (EKVX NSCLC): 59.7 µM
TGI (UACC-62 melanoma): 44.6 µM
TGI (SK-MEL-2 melanoma): 69.1 µM
TGI (MALME-3M melanoma): 38.5 µM
TGI (LOX IMVI melanoma): > 100 µM
TGI (OVCAR-4 ovarian): 33.8 µM
TGI (OVCAR-8 ovarian): 43.2 µM
TGI (RXF 393 renal): 50.2 µM
TGI (NCI-H226 lung): 57.9 µM
TGI (SNB-19 CNS): 53.8 µM
TGI (COLO 205 colon): > 100 µM
TGI (SK-MEL-28 melanoma): > 100 µM
TGI (DLD-1 colon): > 100 µM
TGI (HCT-15 colon): > 100 µM
TGI (M14 melanoma): > 100 µM
TGI (A498 renal): 70 µM
TGI (SF-268 CNS): 71.1 µM
TGI (DMS 273 small cell lung): > 100 µM
TGI (HCC-2998 colon): 89.6 µM
TGI (HCT-116 colon): > 100 µM
TGI (SNB-75 CNS): 17.5 µM
TGI (ACHN renal): 27.5 µM
TGI (SF-539 CNS): 39.6 µM
TGI (U251 CNS): 42.8 µM
TGI (XF 498 CNS): 33.1 µM
TGI (KM20L2 colon): > 100 µM
TGI (CCRF-CEM leukemia): > 100 µM
TGI (LXFL 529 NSCLC): 46.4 µM
TGI (HL-60(TB) leukemia): > 100 µM
TGI (KM12 colon): > 100 µM
TGI (M19-MEL melanoma): 60.4 µM
TGI (TK-10 renal): 47.3 µM
TGI (K-562 leukemia): > 100 µM
